Reference: ChEMBL document CHEMBL1136000, “Synthesis of a small library of 3-(carboranylalkyl)thymidines and their biological evaluation as substrates for human thymidine kinases 1 and 2” (J Med Chem, 2002)

Assays:
[1] = molecular target: T1, Thymidine kinase, cytosolic (Homo sapiens) (UniProt P04183)
T1 sequence (whole entry): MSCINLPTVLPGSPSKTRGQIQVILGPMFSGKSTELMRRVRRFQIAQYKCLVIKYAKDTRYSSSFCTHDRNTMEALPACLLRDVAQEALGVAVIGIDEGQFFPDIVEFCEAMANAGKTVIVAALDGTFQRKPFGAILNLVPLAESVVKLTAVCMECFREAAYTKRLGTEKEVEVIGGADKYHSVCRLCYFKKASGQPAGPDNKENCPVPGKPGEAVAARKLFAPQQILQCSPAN
Description: Rate of phosphorylation in the presence of 1% DMSO using Phosphoryl transfer assay in recombinant human cytosolic thymidine kinase 1 at 10 uM

[2] = molecular target: T1, Thymidine kinase, cytosolic (Homo sapiens); remark: listed apart in the source
Description: Rate of phosphorylation in the presence of 1% DMSO using Phosphoryl transfer assay in recombinant human cytosolic thymidine kinase 1 at 5 uM

[3] = molecular target: Thymidine kinase 2, mitochondrial (Homo sapiens) (UniProt O00142)
Chain of Thymidine kinase 2, mitochondrial (Homo sapiens) (O00142 whole entry, looked up): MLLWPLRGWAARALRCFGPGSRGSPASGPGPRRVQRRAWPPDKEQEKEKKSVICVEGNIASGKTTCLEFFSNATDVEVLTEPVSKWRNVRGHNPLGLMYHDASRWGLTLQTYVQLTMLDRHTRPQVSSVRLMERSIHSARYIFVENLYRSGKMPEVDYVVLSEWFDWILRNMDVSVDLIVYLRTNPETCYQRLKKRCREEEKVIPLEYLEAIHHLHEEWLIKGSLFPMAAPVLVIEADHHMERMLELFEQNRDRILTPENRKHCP

Compound `Cc1cn([C@H]2C[C@H](O)[C@@H](CO)O2)c(=O)n(CCCCCCC2CC2CC(O)CO)c1=O` (some centres undefined) has a Rate of phosphorylation [1] of 0.32, a Rate of phosphorylation [2] of 0.22 and a Rate of phosphorylation [3] of 0.002.

In the case of `Cc1cn([C@H]2C[C@H](O)[C@@H](CO)O2)c(=O)n(CCCCCCC2CC2)c1=O`, the Rate of phosphorylation [1] is reported as 0.28, the Rate of phosphorylation [2] is reported as 0.31 and the Rate of phosphorylation [3] is reported as < 0.001.

With `Cc1cn([C@H]2C[C@H](O)[C@@H](CO)O2)c(=O)n(CCCCCC2CC2)c1=O` the Rate of phosphorylation [1] was 0.41, the Rate of phosphorylation [2] was 0.57 and the Rate of phosphorylation [3] was 0.001.

For `Cc1cn([C@H]2C[C@H](O)[C@@H](CO)O2)c(=O)n(CCCCCCCC2CC2)c1=O`, the Rate of phosphorylation [1] was 0.11, the Rate of phosphorylation [2] was 0.15 and the Rate of phosphorylation [3] was < 0.001.

`Cc1cn([C@H]2C[C@H](O)[C@@H](CO)O2)c(=O)n(CCCC2CC2CC(O)CO)c1=O` (some centres undefined) was tested, and the Rate of phosphorylation [1] was 0.4, the Rate of phosphorylation [2] was 0.43 and the Rate of phosphorylation [3] was 0.004.

In the case of `Cc1cn([C@H]2C[C@H](O)[C@@H](CO)O2)c(=O)n(CCCCC2CC2CC(O)CO)c1=O` (some centres undefined), the Rate of phosphorylation [1] is reported as 0.21, the Rate of phosphorylation [2] is reported as 0.21 and the Rate of phosphorylation [3] is reported as 0.003.

Work on `Cc1cn([C@H]2C[C@H](O)[C@@H](CO)O2)c(=O)n(CCCC2CC2)c1=O` yielded a Rate of phosphorylation [1] of 0.3, a Rate of phosphorylation [2] of 0.27 and a Rate of phosphorylation [3] of 0.002.

`Cc1cn([C@H]2C[C@H](O)[C@@H](CO)O2)c(=O)n(CCCCC2CC2)c1=O` was tested, and the Rate of phosphorylation [1] was 0.13, the Rate of phosphorylation [2] was 0.17 and the Rate of phosphorylation [3] was 0.003.

`Cc1cn([C@H]2C[C@H](O)[C@@H](CO)O2)c(=O)n(CCCCCCCC2CC2CC(O)CO)c1=O` (some centres undefined) was tested, and the Rate of phosphorylation [1] was 0.13, the Rate of phosphorylation [2] was 0.13 and the Rate of phosphorylation [3] was < 0.001.

For `Cc1cn([C@H]2C[C@H](O)[C@@H](CO)O2)c(=O)n(CCC2CC2CC(O)CO)c1=O` (some centres undefined), the Rate of phosphorylation [1] was 0.45, the Rate of phosphorylation [2] was 0.49 and the Rate of phosphorylation [3] was 0.002.

`Cc1cn([C@H]2C[C@H](O)[C@@H](CO)O2)c(=O)[nH]c1=O` was tested, and the Rate of phosphorylation [1] was 1, the Rate of phosphorylation [2] was 1 and the Rate of phosphorylation [3] was 1.

With `Cc1cn([C@H]2C[C@H](O)[C@@H](CO)O2)c(=O)n(CCC2CC2)c1=O` the Rate of phosphorylation [1] was 0.39, the Rate of phosphorylation [2] was 0.42 and the Rate of phosphorylation [3] was 0.002.

In the case of `Cc1cn([C@H]2C[C@H](O)[C@@H](CO)O2)c(=O)n(CCCCCC2CC2CC(O)CO)c1=O` (some centres undefined), the Rate of phosphorylation [1] is reported as 0.41, the Rate of phosphorylation [2] is reported as 0.39 and the Rate of phosphorylation [3] is reported as 0.002.
